One data set relates to CYP related genes. In words: qRT-PCR of CYP related genes in induced hepatocytes after drug treatment. The class given is cell-based, mouse. The following applies: iHep; 25 mM 3-Mc, 1 uM Dex or 50 mM ethanol; 72 hrs; versus DMSO control. The method, then: Total RNA was extracted and cDNA was synthesized in the same method as Example 1. qRT-PCR was performed using synthesized cDNA. mRNA expression of specific genes was confirmed using SYBR Green I Master (Roche, 04887352001) and primers in LightCycler® 480 equipment. The average value was calculated for three analyzes and normalized using Gapdh (5′-[…]-3′ (SEQ ID NO: 94) and 5′-[…]-3′ (SEQ ID NO: 95)). The expression level of mRNA was compared using comparative Ct method. Primer sequences used in qRT-PCR were shown below (sequences below were represented in the 5′ to 3′ direction).
The CYP family members were known to be regulated by aryl hydrocarbon receptor (AhR), constitutive androstane receptor (CAR), pregnane X receptor (PXR), and nuclear receptor which were abundantly found in liver tissue. In order to confirm whether hepatocytes induce CYP when a stimulus was given to such receptors, chemical compounds such as 3-methylcholanthrene (3Mc) which acts on aryl hydrocarbon receptors (Cyp1 family members) and glucocorticoid (Dex, dexamethasone) which acts on glucocorticoid receptors (glucocorticoid receptor regulating CAR and PXR is upstream of Cyp2/3 family members) were treated to receptors.
Specifically, cells were cultured with 60% confluency in HEP medium in which dexamethasone was not added. […]

For the next data set, the system named is hepatocytes. The following applies: 50 mM EtOH for 48 hrs.

Results on 2 compounds are retold here after patent publication US11732240B2, “Direct conversion method of somatic cell into Hepatic stem cell, hepatic cell, or cholangiocyte” (UNIST(ULSAN NATIONAL INSTITUTE OF SCIENCE AND TECHNOLOGY), priority 2016, dated 2023).

The structures appear in SMILES notation.

As for `Cc1ccc2cc3c(ccc4ccccc43)c3c2c1CC3` [3-methylcholanthrene], the “expression of CYP family genes (mRNA)” value in the data set on CYP related genes is reported as “induced”.

On to `CCO` [ethanol], for which the “accumulation of fats and droplets in cytoplasm of hepatocytes” value in the data set with hepatocytes is “accumulation of fats”.
